In brackets after ≈: the same amount, converted by molar mass. Like-named read-outs stand apart in the source and are kept apart here. Blank lines part the entries; values can stand above or below the molecule they belong to.
Experiments:
RUP3 = target: T1, RUP3 (Homo sapiens, UniProt Q8TDV5); experiment: RUP3 dose responses in melanophores (melanophore dispersion assay); format: cell-based
T1 construct: ID; No:2; expressed in transfected cells; host or cells: melanophores (cultured as per Potenza and Lerner 1992), electroporated
T1 sequence (Q8TDV5 with tags, fused parts or gaps): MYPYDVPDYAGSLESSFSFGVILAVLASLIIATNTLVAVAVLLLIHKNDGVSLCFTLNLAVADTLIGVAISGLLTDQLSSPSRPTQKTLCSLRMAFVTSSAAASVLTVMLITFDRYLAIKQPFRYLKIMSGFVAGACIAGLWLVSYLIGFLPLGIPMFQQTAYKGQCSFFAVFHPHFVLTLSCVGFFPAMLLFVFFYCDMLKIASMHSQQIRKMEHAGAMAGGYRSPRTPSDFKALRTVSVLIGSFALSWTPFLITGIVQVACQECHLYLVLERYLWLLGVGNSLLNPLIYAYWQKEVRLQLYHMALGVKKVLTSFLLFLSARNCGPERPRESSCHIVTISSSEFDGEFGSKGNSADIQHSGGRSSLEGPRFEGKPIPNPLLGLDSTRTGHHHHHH
Procedure: Melanophores are maintained in culture as reported by Potenza, M. N. and Lerner, M. R., in Pigment Cell Research, Vol. 5, 372-378, 1992 and transfected with the RUP3 expression vector (pCMV) using electroporation. Following electroporation, the transfected cells are plated into 96 well plates for the assay. The cells are then allowed to grow for 48 hours in order to both recover from the electroporation procedure and attain maximal receptor expression levels.
On the assay day, the growth medium on the cells is replaced with serum-free buffer containing 10 nM melatonin. The melatonin acts via an endogenous Gi-coupled GPCR in the melanophores to lower intracellular cAMP levels. In response to lowered cAMP levels, the melanophores translocate their pigment to the center of the cell. The net effect of this is a significant decrease in the absorbance reading of the cell monolayer in the well, measured at […].
After a 1-hour incubation in melatonin, the cells become completely pigment-aggregated. At this point a baseline absorbance reading is collected. Serial dilutions of test compounds are then added to the plate and compounds that stimulate RUP3 produce increases in intracellular cAMP levels. In response to these increased cAMP levels, the melanophores translocate their pigment back into the cell periphery. After one hour, stimulated cells are fully pigment-dispersed. The cell monolayer in the dispersed state absorbs much more light in the 600-650 nm range. The measured increase in absorbance compared to the baseline reading allows one to quantitate the degree of receptor stimulation and plot a dose-response curve.
The compounds in the above examples were screened using the melanophore dispersion assay, as described above.

Male C57b1/6J mice = experiment: Oral glucose tolerance test (oGTT) in mice; format: in vivo; conditions: for lowering of blood glucose in oGTT (in words): mice after challenge with glucose; for Mean % Inhibition of Glucose Excursion: oGTT, mice, p.o.
Procedure: A. Oral Glucose tolerance test (oGTT)
[…] Compounds were delivered orally via a gavage needle (p.o., volume 10 mL/Kg). At time 0, levels of blood glucose were assessed using a glucometer (Elite XL, Bayer), and mice were administered either vehicle (20% hydroxypropyl-beta-cyclodextrin) or test compound. Thirty minutes after administration of test compound, levels of blood glucose were again assessed, and mice were administered dextrose orally at a dose of 3 g/Kg. Blood glucose measurements were then taken 20 min, 40 min, 60 min and 120 min after this time.

Aqueous solubility = format: physicochemical; conditions: aqueous medium, aqueous buffer
[1] = Rat dose-range PK study (dose escalation pharmacokinetics); format: in vivo
Procedure: Animal, Compound Formulation, Dosing, and Blood Sample Collection: […]
Male SD rats (250-300 g) were purchased from Charles River Laboratory; upon reciept, animals were placed under light-dark cycle (6:30 am-6:30 pm lights on). They were allowed ad libitum access to water and 4 pieces of food daily (Purina Meals Rodent Diet, Product Number 5001).
Compound formulations were prepared as following: The IV injection formulation was prepared in 20% hydroxypropyl-beta-cyclodextrin with concentration of […]. The PO formulations were prepared in 0.5% hydroxypropyl methylcellulose with concentrations of […]. […]
Plasma samples were prepared as follows. […] Calibration standards were typically prepared in the range of 2.0 ng/mL to 10 μg/mL with linear regression for quantitation. […]
Results were calculated by noncompartmental analysis using WinNonlin Pro version 3.1 based on plasma concentration—time profiles for individual animals. Plasma levels were determined as described above and the oral and intravenous area under the concentration vs. time curve (AUC was calculated using the linear trapezoidal rule up to the last measurable concentration and was then extrapolated to infinity) were compared to determine the % bioavailability (% F) by the following formula: Dose (IV)*AUC (oral)/Dose (oral)*AUC (IV). […]

[2] = melanophore dispersion assay, read-out: RUP3 (EC50)

Compound: COc1cc(S(C)(=O)=O)ccc1Nc1ncnc(OC2CCN(C(=O)OC(C)C)CC2)c1OC [Compound 10, 4-[6-(4-Methanesulfonyl-2-methoxy-phenylamino)-5-methoxy-pyrimidin-4-yloxy]-piperidine-1-carboxylic acid isopropyl ester]
- EC50 (RUP3; [2]): 26 nM

Compound: COc1c(Nc2ccc(S(C)(=O)=O)cc2F)ncnc1OC1CCN(C(=O)OC(C)C)CC1 [Compound 24, 4-[6-(2-Fluoro-4-methanesulfonyl-phenylamino)-5-methoxy-pyrimidin-4-yloxy]-piperidine-1-carboxylic acid isopropyl ester]
- EC50 (RUP3; [2]): 0.49 nM

Compound: CCOc1cc(F)c(Nc2ncnc(OC3CCN(C(=O)OC(C)C)CC3)c2OC)cc1F [Compound 75, 4-[6-(4-Ethoxy-2,5-difluoro-phenylamino)-5-methoxy-pyrimidin-4-yloxy]-piperidine-1-carboxylic acid isopropyl ester]
- lowering of blood glucose in oGTT (in words) (Male C57b1/6J mice): lowered blood glucose in a dose-dependent manner
- Mean % Inhibition of Glucose Excursion (Male C57b1/6J mice; dose 3 mg/Kg): 22%
- Mean % Inhibition of Glucose Excursion (Male C57b1/6J mice; dose 10 mg/Kg): 34%

Compound: COc1c(Oc2ccc(S(C)(=O)=O)cc2F)ncnc1OC1CCN(C(=O)OC(C)C)CC1 [Compound 76, 4-[6-(2-Fluoro-4-methanesulfonyl-phenoxy)-5-methoxy-pyrimidin-4-yloxy]-piperidine-1-carboxylic acid isopropyl ester]
- EC50 (RUP3; [2]): 2.51 nM

- solubility (Aqueous solubility; pH=2): 1120 µg/mL (≈ 2330 µM)
- solubility (Aqueous solubility; pH=5): 190 µg/mL (≈ 395 µM)
Compound: COc1c(OC2CCN(C(=O)OC(C)C)CC2)ccnc1Nc1ccc(S(C)(=O)=O)cc1F [Compound 77, 4-[2-(2-Fluoro-4-methanesulfonyl-phenylamino)-3-methoxy-pyridin-4-yloxy]-piperidine-1-carboxylic acid isopropyl ester]

- solubility (Aqueous solubility; pH=2): 1450 µg/mL (≈ 3150 µM)
- solubility (Aqueous solubility; pH=5): 380 µg/mL (≈ 825 µM)
Compound: COc1c(Nc2ccc(NCCO)nc2C)ncnc1OC1CCN(C(=O)OC(C)C)CC1 [Compound 78, 4-{6-[6-(2-Hydroxy-ethylamino)-2-methyl-pyridin-3-ylamino]-5-methoxy-pyrimidin-4-yloxy}-piperidine-1-carboxylic acid isopropyl ester]

Compound: COc1c(Nc2ccc(S(C)(=O)=O)nc2C)ncnc1OC1CCN(C(=O)OC(C)C)CC1 [Compound 84, 4-[6-(6-Methanesulfonyl-2-methyl-pyridin-3-ylamino)-5-methoxy-pyrimidin-4-yloxy]-piperidine-1-carboxylic acid isopropyl ester]
- dose escalation pharmacokinetics, AUC vs dose (in words) ([1]; FIG. 5): linear dose escalation pharmacokinetics
- dose escalation pharmacokinetics, AUC vs dose (in words) ([1]; FIG. 5, listed as 4-[6-(6-Methanesulfonyl-2-methyl-pyridin-3-ylamino)-5-methoxy-pyrimidin-4-yloxy]): essentially linear dose escalation pharmacokinetics
- EC50 (RUP3): 3.55 nM
- agonist activity at the RUP3 receptor (in words) (RUP3): potent agonist
- reduction in AUC (blood glucose, oGTT) (Male C57b1/6J mice; Experiment 1, 30 mpk): 38%
- reduction in AUC (blood glucose, oGTT) (Male C57b1/6J mice; Experiment 2, 30 mpk): 84%
- lowering of blood glucose in oGTT (in words) (Male C57b1/6J mice): able to lower blood glucose

Reference: US8362248B2, “Substituted pyridinyl and pyrimidinyl derivatives as modulators of metabolism and the treatment of disorders related thereto” (Arena Pharmaceuticals, Inc., priority 2005, dated 2013)
